Source: US20180055848A1 (Board of Supervisors of Louisiana State University and …, priority 2015, published 2018)
Where two headings read alike, the source gives them in different places.

How the values were obtained:
adults = settings: after 6 months; cited from earlier work
[1] = tested on: Male Sprague-Dawley rats fed a high fat diet; experiment: Example 5: weight gain, body composition and metabolic chamber in rats, 4 weeks; assay type: in vivo, rat
Experimental: (§1) The Pennington Biomedical Research Center Animal Care and Use Committee approved the animal protocols. […] Male Sprague-Dawley rats (Harlan, Inc., Indianapolis, Ind., 8-9 weeks old) were fed a high fat diet (60% calories from fat, D12492, Research Diets, New Brunswick, N.J.) for 4 weeks. […] All treatments were administered by intraperitoneal injection twice a day. […] Body composition was measured by Nuclear Magnetic Resonance (Minispec LF90 NMR analyzer, Bruker Optics, Billerica, Mass.). Weight and food intake were recorded every 2 days. […] Total activity was measured with a Phenomaster system (TSE Systems, Chesterfield Mo.). Chambers had evenly spaced infrared beam grids along X, Y, and Z axes; the system sensed and quantified total beam breaks caused by movements of the animal.

[2] = tested on: Male Sprague-Dawley rats fed a high fat diet; experiment: Example 6: lean and fat mass in rats, 8 weeks; assay type: in vivo, rat; settings: i.p. twice a day, albuterol 0.125 mg/kg, caffeine 3.12 mg/kg
Experimental: as §1

[3] = tested on: Differentiated human adipocytes; experiment: Lipolysis assay (glycerol release) in cultured adipocytes; assay type: cell-based; settings: 3 hours
Experimental: Primary human adipose tissue was obtained from patients undergoing liposuction, paniculectomy, or bariatric surgery. Tissue was processed by […]) to isolate and cryopreserve pre-adipocytes. At the time of the assay, pre-adipocytes were differentiated into adipocytes. Differentiated human adipocytes adherent to the bottom of a 96-well plate were washed and treated with media containing one of ten treatments: […] After incubation, a 50 μL aliquot was removed and combined with 50 μL glycerol reagent, in a colorimetric assay based on the amount of glycerol released during incubation with test compounds. Absorbance was measured at 540 nm, and results were calibrated against a standard curve. Eight replicates were conducted for each treatment.

[4] = tested on: lean adults and post-obese adults; settings: 100 mg of caffeine, cited from earlier work
healthy adults = experiment: Metabolic rate in humans (indirect calorimetry, crossover study)

**Q.** With `CCCCCCCCCCC[C@@H](C[C@@H]1OC(=O)[C@H]1CCCCCC)OC(=O)[C@H](CC(C)C)NC=O` [Orlistat] as the compound, how does the weight loss (adults) read?
**A.** The weight loss was “about 2.8%”.

**Q.** And the “weight loss attributable to fat loss” value (adults)?
**A.** Its value is 2.1%.

**Q.** What about the “weight loss attributable to reduction in lean tissue” value (adults) of the same compound?
**A.** Its value is 0.7%.

**Q.** For `CC(C)(C)NCC(O)c1ccc(O)c(CO)c1` (stereo not shown) [albuterol, albuterol (salbutamol)], which “additional lean mass gained compared to the saline control group” value ([1]; 4 weeks, i.p. twice a day, albuterol 0.125 mg/kg, caffeine 3.12 mg/kg, p<0.001) is on record?
**A.** The value was 16.6 g.

**Q.** And the “weight gain compared to the saline control group” value ([1]; 4 weeks, i.p. twice a day, albuterol 0.125 mg/kg, caffeine 3.12 mg/kg, p=0.04)?
**A.** The value was “gained significantly more weight”.

**Q.** And the “energy expenditure during the dark phase” value ([1]; albuterol 0.125 mg/kg i.p. twice a day, p=0.07)?
**A.** The value was “trend towards increased energy expenditure”.

**Q.** And the “fat mass gained, week 8” value ([2]; p=0.004, n=30)?
**A.** Its value is 20.1 g.

**Q.** What about the “lean mass gained by week 8” value ([2]; p=0.03, n=30) of the same compound?
**A.** Its value is 60.3 g.

**Q.** Which “increase in lipolysis over buffer-treated cells” value ([3]; caffeine 10 μg/mL, p=0.83) does the source give for `Cn1c(=O)c2c(ncn2C)n(C)c1=O` [caffeine] here?
**A.** The value was “exception”.

**Q.** And the fat accretion ([1]; 4 weeks, i.p. twice a day, p=0.006)?
**A.** Its fat accretion is “reduced fat accretion”.

**Q.** And the “increase in resting metabolic rate” value [4]?
**A.** The value was 3-4%.

**Q.** What about the “increase in resting metabolic rate” value ([4]; lean adults) of the same compound?
**A.** Its value is 150 kcal/day.

**Q.** And the “increase in resting metabolic rate” value ([4]; post-obese adults)?
**A.** Its value is 80 kcal/day.

**Q.** And the “increased energy expenditure (the delta)” value (healthy adults; 100 mg caffeine alone, oral)?
**A.** The value was 37 kcal.

**Q.** What about the “energy expenditure over the baseline metabolic rate” value (healthy adults; all dosages, single oral dose, p<0.02 to p<0.001, n=8) of the same compound?
**A.** The value was “significant increases”.

**Q.** Which increase in lipolysis ([3]; Isoproterenol 1 μM positive control, p<0.001) does the source give for `CC(C)NCC(O)c1ccc(O)c(O)c1` (stereo not shown) [isoproterenol, Isoproterenol] here?
**A.** Its increase in lipolysis is about 90%.
